The structures appear in SMILES notation.

One series deals with T1, Calcitonin gene-related peptide type 1 receptor (Homo sapiens, UniProt O60894+Q16602). The series can be described thus: Antagonist activity at human CGRP receptor in human SK-N-MC cells assessed as inhibition of CGRP-induced cAMP production.
T1 sequence (Q16602 whole entry, one chain of several): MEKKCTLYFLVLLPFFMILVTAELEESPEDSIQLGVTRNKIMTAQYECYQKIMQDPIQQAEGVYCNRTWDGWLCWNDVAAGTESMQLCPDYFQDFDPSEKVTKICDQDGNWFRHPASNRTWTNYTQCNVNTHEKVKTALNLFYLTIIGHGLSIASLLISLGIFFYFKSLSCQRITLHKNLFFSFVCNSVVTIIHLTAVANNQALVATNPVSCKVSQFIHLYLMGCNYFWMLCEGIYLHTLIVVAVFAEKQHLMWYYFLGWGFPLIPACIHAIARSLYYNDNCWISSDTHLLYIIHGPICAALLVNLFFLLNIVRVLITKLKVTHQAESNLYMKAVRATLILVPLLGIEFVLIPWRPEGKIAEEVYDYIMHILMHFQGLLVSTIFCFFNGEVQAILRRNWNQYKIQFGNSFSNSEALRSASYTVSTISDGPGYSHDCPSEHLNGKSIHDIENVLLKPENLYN
Settings: not given
It counts as functional, cell-based. A general note: Cyclic AMP is a second messenger, typically raised through Gs and lowered through Gi signalling.
With `O=C(C[C@@H]1Cc2cc(Cl)c3[nH]ncc3c2CN(CC(F)(F)F)C1=O)N1CCC(N2CCc3ccccc3NC2=O)CC1`, the IC50 was 0.27 nM.

For the next series, the system named is Callithrix jacchus. The series can be described thus: Antimigraine activity in human CGRPalpha-induced migraine marmoset model assessed as reduction in facial blood flow at 5 mg/kg, sc administered 30 mins after CGRP stimulation and measured after 105 mins by laser doppler method relative to control. Format: functional. More on the design: scale not given: the % may be the effect or the level left. To be noted: time 135 min, 2.25 h.
Take `O=C(C[C@@H]1Cc2cc(Cl)c3[nH]ncc3c2CN(CC(F)(F)F)C1=O)N1CCC(N2CCc3ccccc3NC2=O)CC1`: the Activity is listed as 47%.

Another series relates to Callithrix jacchus. The series can be described thus: Antimigraine activity in human CGRPalpha-induced migraine marmoset model assessed as reduction in facial blood flow at 5 mg/kg, sc administered 30 mins after CGRP stimulation and measured after 60 mins by laser doppler method relative to control. Format: functional. More on the design: scale not given: the % may be the effect or the level left. The following applies: time 90 min, 1.5 h.
`O=C(C[C@@H]1Cc2cc(Cl)c3[nH]ncc3c2CN(CC(F)(F)F)C1=O)N1CCC(N2CCc3ccccc3NC2=O)CC1`: the Activity is 41%.

In the next series the test system is Callithrix jacchus. Nature of the series: Antimigraine activity in human CGRPalpha-induced migraine marmoset model assessed as reduction in facial blood flow at 5 mg/kg, sc administered 30 mins after CGRPalpha stimulation measured after 15 mins by laser doppler method relative to control. Format: functional. The arrangement: scale not given: the % may be the effect or the level left. The following applies: time 45 min, 0.75 h.
Turning to `O=C(C[C@@H]1Cc2cc(Cl)c3[nH]ncc3c2CN(CC(F)(F)F)C1=O)N1CCC(N2CCc3ccccc3NC2=O)CC1`, the Activity is recorded as 27%.

Tested on in another series: not listed separately
The series can be described thus: Protein binding human plasma assessed as unbound fraction. It counts as ADME, cell-free.
Settings: not given
Turning to `O=C(C[C@@H]1Cc2cc(Cl)c3[nH]ncc3c2CN(CC(F)(F)F)C1=O)N1CCC(N2CCc3ccccc3NC2=O)CC1`, the free fraction (fraction unbound) was determined as 0.028.

Tested on in the next series: not listed separately
Nature of the series: Metabolic stability in dog liver microsomes assessed as half life. Format: ADME, Canis lupus familiaris, Microsome.
Settings: not given
Regarding `O=C(C[C@@H]1Cc2cc(Cl)c3[nH]ncc3c2CN(CC(F)(F)F)C1=O)N1CCC(N2CCc3ccccc3NC2=O)CC1`, the half-life came to 3.1 min.

Tested on in the next series: not listed separately
Nature of the series: Metabolic stability in rat liver microsomes assessed as half life. It counts as ADME, Microsome.
Settings: not given
`O=C(C[C@@H]1Cc2cc(Cl)c3[nH]ncc3c2CN(CC(F)(F)F)C1=O)N1CCC(N2CCc3ccccc3NC2=O)CC1`: the half-life was 2.2 min.

Tested on in another series: not listed separately
Nature of the series: Metabolic stability in monkey liver microsomes assessed as half life. Format: ADME, Macaca mulatta, Microsome. The following applies: rhesus monkey.
`O=C(C[C@@H]1Cc2cc(Cl)c3[nH]ncc3c2CN(CC(F)(F)F)C1=O)N1CCC(N2CCc3ccccc3NC2=O)CC1`: the half-life worked out at 2.4 min.

Tested on in another series: not listed separately
The series can be described thus: Oral bioavailability in rat at 10 mg/kg. The following applies: in vivo. It counts as ADME, organism-based.
On to `CC(C)(C)CN1Cc2c(cc(Cl)c3[nH]ncc23)C[C@@H](CC(=O)N2CCC(c3cc4ccccc4[nH]c3=O)CC2)C1=O`, for which the bioavailability stood at 4.5%. Same read-out and setting: in the case of `O=C(C[C@@H]1Cc2cc(Cl)c3[nH]ncc3c2CN(CC(F)(F)F)C1=O)N1CCC(n2c(=O)[nH]c3ncccc32)CC1` it was 5.5%; in that of `O=C(C[C@@H]1Cc2cc(Cl)c3[nH]ncc3c2CN(CC(F)(F)F)C1=O)N1CCC(N2CCc3ccccc3NC2=O)CC1`, 17%; in that of `O=C(C[C@@H]1Cc2cc(Cl)c3[nH]ncc3c2CN(CC(F)(F)F)C1=O)N1CCC(c2cc3ccccc3[nH]c2=O)CC1`, 3.4%. Still for that read-out and setting: in the case of `CC(C)(C)CN1Cc2c(cc(Cl)c3[nH]ncc23)C[C@@H](CC(=O)N2CCC(N3Cc4cccc(F)c4NC3=O)CC2)C1=O` it was 4.7%; in that of `CC(C)(C)CN1Cc2c(cc(Cl)c3[nH]ncc23)C[C@@H](CC(=O)N2CCC(c3cc4cccc(F)c4[nH]c3=O)CC2)C1=O`, 12%; in that of `CC(C)(C)CN1Cc2c(cc(Cl)c3[nH]ncc23)C[C@@H](CC(=O)N2CCC(N3Cc4ccccc4NC3=O)CC2)C1=O`, 1.8%.

Tested on in a further series: not listed separately
The series can be described thus: Metabolic stability in human liver microsomes assessed as half life. It counts as ADME, Microsome.
Settings: not given
On the technique in general: Liver microsomes are vesicles of endoplasmic reticulum, rich in cytochrome P450 enzymes.
For `O=C(C[C@@H]1Cc2cc(Cl)c3[nH]ncc3c2CN(CC(F)(F)F)C1=O)N1CCC(N2CCc3ccccc3NC2=O)CC1`, the half-life was found to be 3.6 min.

The next series deals with T1, Calcitonin gene-related peptide type 1 receptor. The series can be described thus: Antagonist activity at human CGRP receptor.
Settings: not given
As to `CC(C)(C)CN1Cc2c(cc(Cl)c3[nH]ncc23)C[C@@H](CC(=O)N2CCC(c3cc4ccccc4[nH]c3=O)CC2)C1=O`, the Ki was found to be 0.75 nM.

Take `O=C(C[C@@H]1Cc2cc(Cl)c3[nH]ncc3c2CN(CC(F)(F)F)C1=O)N1CCC(N2Cc3ccccc3NC2=O)CC1`: the Ki was 0.23 nM. Same read-out and setting: the value for `O=C(C[C@@H]1Cc2cc(Cl)c3[nH]ncc3c2CN(CC(F)(F)F)C1=O)N1CCC(n2c(=O)[nH]c3ncccc32)CC1` was 0.09 nM; that for `O=C(C[C@@H]1Cc2cc(Cl)c3[nH]ncc3c2CN(CC(F)(F)F)C1=O)N1CCC(N2CCc3ccccc3NC2=O)CC1` was 0.1 nM. Same read-out and setting: the value for `O=C(N[C@@H]1Cc2ccc3[nH]ncc3c2CN(CCc2ccncc2)C1=O)N1CCC(N2Cc3ccccc3NC2=O)CC1` was 7.1 nM; that for `O=C(C[C@@H]1Cc2cc(Cl)c3[nH]ncc3c2CN(CC(F)(F)F)C1=O)N1CCC(c2cc3ccccc3[nH]c2=O)CC1` was 0.54 nM; that for `CC(C)(C)CN1Cc2c(cc(Cl)c3[nH]ncc23)C[C@@H](CC(=O)N2CCC(N3Cc4cccc(F)c4NC3=O)CC2)C1=O` was 0.31 nM. Still for that read-out and setting: the value for `CC(C)(C)CN1Cc2c(cc(Cl)c3[nH]ncc23)C[C@@H](CC(=O)N2CCC(c3cc4cccc(F)c4[nH]c3=O)CC2)C1=O` was 6 nM. Take `CC(C)(C)CN1Cc2c(cc(Cl)c3[nH]ncc23)C[C@@H](CC(=O)N2CCC(N3Cc4ccccc4NC3=O)CC2)C1=O`: the Ki was 0.41 nM. With `CN(C)CCN1Cc2c(ccc3[nH]ncc23)C[C@@H](NC(=O)N2CCC(N3Cc4ccccc4NC3=O)CC2)C1=O`, the Ki came to 170 nM. For the molecule `CC(C)(C)CN1Cc2c(ccc3[nH]ncc23)C[C@@H](NC(=O)N2CCC(N3Cc4ccccc4NC3=O)CC2)C1=O`, the Ki is 4.9 nM.

Turning to `O=C(C[C@@H]1Cc2cc(Cl)c3[nH]ncc3c2CN(CC(F)(F)F)C1=O)N1CCC(N2CCc3cccc(F)c3NC2=O)CC1`, the Ki worked out at 9.2 nM. Consider `O=C(C[C@@H]1Cc2cc(Cl)c3[nH]ncc3c2CN(CC(F)(F)F)C1=O)N1CCC(n2c(=O)[nH]c3ccccc32)CC1`, for which the inhibitory constant (Ki) came to 3.3 nM. Same read-out and setting: in the case of `CC(C)N1Cc2c(ccc3[nH]ncc23)C[C@@H](NC(=O)N2CCC(N3Cc4ccccc4NC3=O)CC2)C1=O` it was 59 nM. The same measure, in the same setting: the value for `O=C(N[C@@H]1Cc2cc(Cl)c3[nH]ncc3c2CN(Cc2ccccc2)C1=O)N1CCC(N2Cc3ccccc3NC2=O)CC1` was 1 nM; that for `O=C(N[C@@H]1Cc2ccc3[nH]ncc3c2CN(CCN2CCOCC2)C1=O)N1CCC(N2Cc3ccccc3NC2=O)CC1` was 50 nM; that for `O=C(N[C@@H]1Cc2ccc3[nH]ncc3c2CN(Cc2ccccc2)C1=O)N1CCC(N2Cc3ccccc3NC2=O)CC1` was 12 nM. Same read-out and setting: in the case of `O=C(N[C@@H]1Cc2ccc3[nH]ncc3c2CN(Cc2ccncc2)C1=O)N1CCC(N2Cc3ccccc3NC2=O)CC1` it was 22 nM. Regarding `O=C(C[C@@H]1Cc2cc(Cl)c3[nH]ncc3c2CN(CC(F)(F)F)C1=O)N1CCC(c2cc3cccc(F)c3[nH]c2=O)CC1`, the inhibition constant (Ki) worked out at 6 nM. On the same count and under the same terms, the value for `CC(C)CN1Cc2c(ccc3[nH]ncc23)C[C@@H](NC(=O)N2CCC(N3Cc4ccccc4NC3=O)CC2)C1=O` was 14 nM. On the same count and under the same terms, in the case of `O=C(N[C@@H]1Cc2ccc3[nH]ncc3c2CN(C2CCNCC2)C1=O)N1CCC(N2Cc3ccccc3NC2=O)CC1` it was 290 nM; in that of `CN1Cc2c(ccc3[nH]ncc23)C[C@@H](NC(=O)N2CCC(N3Cc4ccccc4NC3=O)CC2)C1=O`, 370 nM; in that of `CC(C)(C)CN1Cc2c(cc(Cl)c3[nH]ncc23)C[C@@H](NC(=O)N2CCC(N3Cc4ccccc4NC3=O)CC2)C1=O`, 1.5 nM.

As usually defined, the IC50 is the concentration that gives 50% inhibition. In general, fraction unbound refers to the share of the substance not bound to proteins or other matrix. One may read the half-life as how long it takes for the measured level to halve. As usually defined, the bioavailability is the share of a dose that reaches the circulation, judged against a reference dose that is usually intravenous. As usually defined, the Ki is a measure of affinity in units of concentration, obtained from inhibition or displacement.

These data come from ChEMBL document CHEMBL4673257, “Azepino-indazoles as calcitonin gene-related peptide (CGRP) receptor antagonists” (Bioorg Med Chem Lett, 2021).
